Experimental findings from patent EP1369114A1, “Use of tryptophan metabolites as pharmaceutical agents” (Terness, Peter, Priv. Doz. Dr., priority 2002, dated 2003) are described below.

The subject of experiment [1] is T cells. In words: Detection of cell death: 7-AAD staining of anti-CD3 stimulated lymphocytes, FACScan. The format is cell-based, human. The conditions noted are these: anti-CD3, 3 days; 1501 µM kynurenine, 349µM 3-hydroxykynurenine, 510µM 3-hydroxyanthranilic acid, mixture 64 µM of each compound. The protocol: Lymphocytes were stimulated in culture with anti-CD3 monoclonal antibody (s. above) in the presence or absence (control) of kynurenine (1501µM), 3-hydroxyanthranilic acid (510µM), 3-hydroxykynurenine (348µM), or metabolite mixture (64µM kynurenine + 64µM 3-hydroxykynurenine + 64µM anthranilic acid + 64µM 3-hydroxyanthranilic acid + […] quinolinic acid). After 3 days the cells were washed and resuspended in PBS (10^6/ml). Thereafter, the cells (100µ1 suspension) were labeled with anti-CD3-FITC antibody (3 µl), stained with 7-AAD (5µl) for 15 min, and the percentage of 7-AAD-positive (dead) T cells was determined in a FACScan. In an other experiment T cells, B cells, NK-cells, or DCs were separated from PBMCs by magnetic beads or generated as described, and cultured (5x10^5 cells/ml) with a mixture of kynurenine metabolites (kynurenine + 3-hydroxykynurenine + anthranilic acid + 3-hydroxyanthranilic acid + quinolinic acid)(8, 16, or 32µM respectively for each compound). In one setting T cells were activated with anti-CD3 antibody. Cell death was measured daily for 5 days by 7-AAD staining and expressed in percentage of dead cells.

Experiment [2] has as its system CD3-stimulated T cells. Put plainly: CD3 stimulation of T cells: metabolite titration curves, 3[H]-thymidin incorporation. The experiment is classed as cell-based, human. The conditions noted are these: anti-CD3 antibody, 3 days. The text has this:
• (a) Allogeneic T-cell response. DCs were infected with recombinant IDO-adeno-GFP (DC-IDO-GFP), IDO-adeno (DC-IDO) or with control adenoviruses (DC-adeno) at a MOI (multiplicity of infection) up to 500 for 2 days. Lymphocytes (PBMCs) were separated from peripheral blood of healthy donors by density gradient centrifugation and typed for HLA antigens. Only HLA-DR-different responder lymphocytes were used for DC-induced stimulation. Native DCs only, lymphocytes only, native DCs + allogeneic lymphocytes, DC-IDO-GFP + allogeneic lymphoytes, DC-IDO + allogeneic lymphoytes, DC-adeno + allogeneic lymphocytes (each time 10^5 DC + 10^5 lymphocytes in 0.2ml medium) were cultured in RPMI 1640 medium (Gibco BRL Life Technologies GmbH, Eggenstein, Germany) with 10% fetal calf serum (FCS) (final tryptophan concentration 5.25 mg/l = 25.69 uM) and Penicillin G/Streptomycin. […] In order to verify whether IDO expression or adenovirus infection harm the DCs, 10^5 cells were infected with IDO-adeno-GFP, IDO-adenovirus, or adenovirus only at a stepwise decreasing MOI (500, 250, 125, ........ 3.9) and cell viability was measured in FACS following double staining with 7-AAD and anti-CD83 antibody-PE. The percentage of dead cells never exceeded 30% for any MOI following IDO-adeno-GFP- or IDO-adeno-infection and 40% following adenovirus(control)-infection. Moreover, these values were not higher than those of native DCs cultured for the same period of time. The experiment was repeated using ethidium bromide or trypan blue staining with virtually the same result. […] Peripheral blood lymphocytes were cultured (10^5 cells/well) in RPMI 1640 (10% FCS) with anti CD3 monoclonal antibody (Ortho Diagnostic Systems Inc., Raritan, NJ) (final dilution 1:200). […] Kynurenine, 3-hydroxykynurenine, anthranilic acid, 3-hydroxyanthranilic acid, and quinolinic acid (Sigma-Aldrich Chemie GmbH, Taufkirchen, Germany)(for all substances purity>98%) were dissolved in RPMI 1640 and added to cell cultures at various concentrations. In an other experiment, to determine whether the metabolites have an additive effect, equal concentrations of the compounds were mixed and added to the cultures. […] Positive controls consisted of CD3-stimulated cells without metabolites and negative controls of unstimulated cells. • (d) Restimulation of suppressed T cells. Lymphocytes (10^5 cells/well) were cultured in RPMI 1640 (10% FCS) with anti-CD3 monoclonal antibody (final dilution 1:200) and kynurenine (dilution series). […] Controls consisted of cells prestimulated with anti-CD3 but not pretreated with kynurenine. In an other restimulation experiment lymphocytes were stimulated with allogeneic DCs as described, in the presence (47-1500µM) or absence of kynurenine. Control cultures contained DCs or lymphocytes only. After 5 days the cells were extensively washed, and restimulated with an identical number of DCs derived from the same donor or from third party donors. […] In order to define the concentration of tryptophan which reduces T- lymphocyte proliferation in our test system, 10^5 lymphocytes were incubated in tryptophan-free RPMI 1640 medium (Gibco BRL Life Technologies) with or without 10% FCS, stimulated with anti-CD3 monoclonal antibody, and various amounts (0-38µM) of tryptophan were added. Unimpaired proliferation was observed down to 0.30µM (medium with FCS) and 1 .20µM (without FCS). Complete inhibition was not obtained at any concentration (positive control 100% proliferation; maximal suppression in medium with FCS: approx. 66% and without FCS: approx. 33%). All cell cultures were done in triplicate.
All tests were carried out in triplicate and results are given as mean +standard deviation. […] Thereafter, the concentration of substance giving 50% proliferation was calculated by regression.

For `Nc1ccccc1C(=O)CC(N)C(=O)O` (stereo not drawn) [kynurenine], in experiment [1], the “dead (7-AAD-positive) T cells (in words)” value was “virtually all cells died”. In addition, in experiment [2] (Homo sapiens, T-cell, 72 h, single substance, read-out: I50 of proliferation of CD3-stimulated T cells), the IC50 was determined as 553 µM. For the same molecule, the “suppression of T cell response (in words)” value in experiment [2] is recorded as “suppressed proliferation”.
